# Laboratory results taken from patent US7838674B2, “Tetracyclic lactame derivatives” (Novartis AG, priority 2007, dated 2010).
# pIC50: −log10 of the molar value. Structures can show the parent of a compound that is named as a salt.
# Biological target: T1, MAPKAPK2 enzyme (HIS-MK2, Invitrogen PV4019) (Homo sapiens, UniProt P49137)
# T1 construct: His; purchased Invitrogen PV4019
# Assay: Alternative MAPKAPK2 assay (Caliper microfluidic mobility shift, HSP27-peptide)
# Format: biochemical
# Conditions: HIS-MK2 0.013 nM, ATP 10 μM, 60 min at 30° C.
# T1 sequence (P49137 whole entry): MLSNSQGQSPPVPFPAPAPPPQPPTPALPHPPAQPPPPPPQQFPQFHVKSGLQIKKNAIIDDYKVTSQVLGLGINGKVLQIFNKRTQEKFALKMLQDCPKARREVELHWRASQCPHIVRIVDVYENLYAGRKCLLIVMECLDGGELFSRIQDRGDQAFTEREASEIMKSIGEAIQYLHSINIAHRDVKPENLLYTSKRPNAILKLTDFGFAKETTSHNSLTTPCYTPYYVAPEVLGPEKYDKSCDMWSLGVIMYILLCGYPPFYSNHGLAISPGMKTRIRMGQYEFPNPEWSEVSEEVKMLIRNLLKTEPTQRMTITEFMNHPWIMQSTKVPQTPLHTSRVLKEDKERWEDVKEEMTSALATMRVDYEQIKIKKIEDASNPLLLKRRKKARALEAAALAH
row,pIC50,Compound
1,7.66,"O=C1NC2(CC2)Cc2[nH]c3c(c21)CCc1cnc(-c2ccc(N4CCOCC4)nc2)cc1-3 [Example 236, 2-(1-Amino-cyclopropylmethyl)-8-(6-morpholin-4-yl-pyridin-3-yl)-4,5-dihydro-1H-pyrrolo[2,3-f]isoquinoline-3-carboxylic acid lactam]"
2,7.17,"COc1ccc(-c2cc3c(cn2)CCc2c-3[nH]c3c2C(=O)NC2(CC2)C3)cc1F [Example 238, 2-(1-Amino-cyclopropylmethyl)-8-(3-fluoro-4-methoxy-phenyl)-4,5-dihydro-1H-pyrrolo[2,3-f]isoquinoline-3-carboxylic acid lactam]"
3,7.96,"O=C1NC2(CC2)Cc2[nH]c3c(c21)CCc1cnc(-c2ccc(CO)nc2)cc1-3 [Example 240, 2-(1-Amino-cyclopropylmethyl)-8-(6-hydroxymethyl-pyridin-3-yl)-4,5-dihydro-1H-pyrrolo[2,3-f]isoquinoline-3-carboxylic acid lactam]"
4,7.00,"O=C1NC2(CC2)Cc2[nH]c3c(c21)CCc1cnc(-c2ccc(CCCN4CCOCC4)cc2)cc1-3 [Example 246, 2-(1-Amino-cyclopropylmethyl)-8-[4-(3-morpholin-4-yl-propyl)-phenyl]-4,5-dihydro-1H-pyrrolo[2,3-f]isoquinoline-3-carboxylic acid lactam]"
5,7.10,"O=C1NC2(CC2)Cc2[nH]c3c(c21)CCc1cnc(-c2ccc(CCCN4CC(O)C4)cc2)cc1-3 [Example 248, 2-(1-Amino-cyclopropylmethyl)-8-{4-[3-(3-hydroxy-azetidin-1-yl)-propyl]-phenyl}-4,5-dihydro-1H-pyrrolo[2,3-f]isoquinoline-3-carboxylic acid lactam]"
6,> 8.52,CCN1CC2(C1)c1[nH]c3c(c1C(=O)NC21CC1)CCc1cnc(-c2ccc(OC(C)C)nc2)cc1-3 [Example 250]
7,8.52,"CCN1CC2(C1)c1[nH]c3c(c1C(=O)NC21CC1)CCc1cnc(-c2ccc(OC)nc2)cc1-3 [Example 251, 2-[3-(1-Amino-cyclopropyl)-1-ethyl-azetidin-3-yl]-8-(6-methoxy-pyridin-3-yl)-4,5-dihydro-1H-pyrrolo[2,3-f]isoquinoline-3-carboxylic acid lactam]"
8,8.10,"CCN1CC2(C1)c1[nH]c3c(c1C(=O)NC21CC1)CCc1cnc(-c2cnc(OC)c(F)c2)cc1-3 [Example 252, 2-[3-(1-Amino-cyclopropyl)-1-ethyl-azetidin-3-yl]-8-(5-fluoro-6-methoxy-pyridin-3-yl)-4,5-dihydro-1H-pyrrolo[2,3-f]isoquinoline-3-carboxylic acid lactam]"
9,7.82,"CCN1CC2(C1)c1[nH]c3c(c1C(=O)NC21CC1)CCc1cnc(-c2ccccc2F)cc1-3 [Example 253, 2-[3-(1-Amino-cyclopropyl)-1-ethyl-azetidin-3-yl]-8-(2-fluoro-phenyl)-4,5-dihydro-1H-pyrrolo[2,3-f]isoquinoline-3-carboxylic acid lactam]"
10,> 8.52,"CC(C)Oc1ccc(-c2cc3c(cn2)CCc2c-3[nH]c3c2C(=O)NC2(CC2)C32CN(C)C2)cn1 [Example 254, 2-[3-(1-Amino-cyclopropyl)-1-methyl-azetidin-3-yl]-8-(6-isopropoxy-pyridin-3-yl)-4,5-dihydro-1H-pyrrolo[2,3-f]isoquinoline-3-carboxylic acid lactam]"
11,> 8.52,"COc1ccc(-c2cc3c(cn2)CCc2c-3[nH]c3c2C(=O)NC2(CC2)C32CN(C)C2)cn1 [Example 255, 2-[3-(1-Amino-cyclopropyl)-1-methyl-azetidin-3-yl]-8-(6-methoxy-pyridin-3-yl)-4,5-dihydro-1H-pyrrolo[2,3-f]isoquinoline-3-carboxylic acid lactam]"
12,> 8.52,"CN1CC2(C1)c1[nH]c3c(c1C(=O)NC21CC1)CCc1cnc(-c2ccccc2F)cc1-3 [Example 256, 2-[3-(1-Amino-cyclopropyl)-1-methyl-azetidin-3-yl]-8-(2-fluoro-phenyl)-4,5-dihydro-1H-pyrrolo[2,3-f]isoquinoline-3-carboxylic acid lactam]"
13,> 8.52,"CN1CC2(C1)c1[nH]c3c(c1C(=O)NC21CC1)CCc1cnc(-c2ccc(OCCN4CCOCC4)cc2)cc1-3 [Example 259, 2-[3-(1-Amino-cyclopropyl)-1-methyl-azetidin-3-yl]-8-[4-(2-morpholin-4-yl-ethoxy)-phenyl]-4,5-dihydro-1H-pyrrolo[2,3-f]isoquinoline-3-carboxylic acid lactam]"

# Second part, the compound before the results:
row,Compound,pIC50
1,"O=C1NC2(CC2)Cc2[nH]c3c(c21)CCc1cnc(-c2ccc(N4CCNCC4)cc2)cc1-3 [Example 216, 2-(1-Amino-cyclopropylmethyl)-8-(4-piperazin-1-yl-phenyl)-4,5-dihydro-1H-pyrrolo[2,3-f]isoquinoline-3-carboxylic acid lactam hydrochloride]",7.74
2,"CN1CCN(c2ccc(-c3cc4c(cn3)CCc3c-4[nH]c4c3C(=O)NC3(CC3)C4)cc2)CC1 [Example 217, 2-(1-Amino-cyclopropylmethyl)-8-(4-methyl-piperazin-1-yl-phenyl)-4,5-dihydro-1H-pyrrolo[2,3-f]isoquinoline-3-carboxylic acid lactam]",7.03
3,"COc1ccc(-c2ncc3c(n2)-c2c(c4c(n2C)C2(CNC2)CNC4=O)CC3)cc1 [Example 218, 2-(3-Aminomethyl-azetidin-3-yl)-8-(4-methoxy-phenyl)-1-methyl-4,5-dihydro-1H-1,7,9-triaza-cyclopenta[a]naphthalene-3-carboxylic acid lactam hydrochloride]",7.52
4,"COc1ccc(-c2ncc3c(n2)-c2c(c4c(n2C)C2(CNC4=O)CN(C)C2)CC3)cc1 [Example 219, 2-(3-Aminomethyl-1-methyl-azetidin-3-yl)-8-(4-methoxy-phenyl)-1-methyl-4,5-dihydro-1H-1,7,9-triaza-cyclopenta[a]naphthalene-3-carboxylic acid lactam]",7.70
5,"O=C1NC2(CC2)C2(CC2)c2[nH]c3c(c21)CCc1cnc(-c2ccc(N4CCNCC4)cc2)cc1-3 [Example 220, 2-(1′-Amino-bicyclopropyl-1-yl)-8-(4-piperazin-1-yl-phenyl)-4,5-dihydro-1H-pyrrolo[2,3-f]isoquinoline-3-carboxylic acid lactam hydrochloride]",7.59
6,"CN1CCN(c2ccc(-c3cc4c(cn3)CCc3c-4[nH]c4c3C(=O)NC3(CC3)C43CC3)cc2)CC1 [Example 221, 2-(1′-Amino-bicyclopropyl-1-yl)-8-[4-(4-methyl-piperazin-1-yl)-phenyl]-4,5-dihydro-1H-pyrrolo[2,3-f]isoquinoline-3-carboxylic acid lactam]",7.54
7,"CN1CC2(C1)c1[nH]c3c(c1C(=O)NC21CC1)CCc1cnc(-c2ccc(C(F)(F)F)nc2)cc1-3 [Example 222, 2-[3-(1-Amino-cyclopropyl)-1-methyl-azetidin-3-yl]-8-(6-trifluoromethyl-pyridin-3-yl)-4,5-dihydro-1H-pyrrolo[2,3-f]isoquinoline-3-carboxylic acid lactam]",> 8.52
8,"CN1CC2(C1)c1[nH]c3c(c1C(=O)NC21CC1)CCc1cnc(-c2ccc(F)nc2)cc1-3 [Example 223, 2-[3-(1-Amino-cyclopropyl)-1-methyl-azetidin-3-yl]-8-(6-fluoro-pyridin-3-yl)-4,5-dihydro-1H-pyrrolo[2,3-f]isoquinoline-3-carboxylic acid lactam]",> 8.52
9,"CN1CC2(C1)c1[nH]c3c(c1C(=O)NC21CC1)CCc1cnc(-c2cccc(Cl)c2)cc1-3 [Example 224, 2-[3-(1-Amino-cyclopropyl)-1-methyl-azetidin-3-yl]-8-(3-chlorophenyl)-4,5-dihydro-1H-pyrrolo[2,3-f]isoquinoline-3-carboxylic acid lactam]",> 8.52
10,"COc1ccc(-c2cc3c(cn2)CCc2c-3[nH]c3c2C(=O)NC2(CC2)C32CN(C)C2)cc1 [Example 225, 2-[3-(1-Amino-cyclopropyl)-1-methyl-azetidin-3-yl]-8-(4-methoxyphenyl)-4,5-dihydro-1H-pyrrolo[2,3-f]isoquinoline-3-carboxylic acid lactam]",> 8.52
11,"CN1CC2(C1)c1[nH]c3c(c1C(=O)NC21CC1)CCc1cnc(-c2cccc(C(=O)NCc4ccccc4)c2)cc1-3 [Example 226, 2-[3-(1-Amino-cyclopropyl)-1-methyl-azetidin-3-yl]-8-(3-benzylcarbamoyl-phenyl)-4,5-dihydro-1H-pyrrolo[2,3-f]isoquinoline-3-carboxylic acid lactam]",> 8.52
12,"CN1CC2(C1)c1[nH]c3c(c1C(=O)NC21CC1)CCc1cnc(-c2ccc(OCCN4CCOCC4)cc2)nc1-3 [Example 227, 2-[3-(1-Amino-cyclopropyl)-1-methyl-azetidin-3-yl]-8-[4-(2-morpholin-4-yl-ethoxy)-phenyl]-4,5-dihydro-1H-1,7,9-triaza-cyclopenta[a]naphthalene-3-carboxylic acid lactam]",8.15
13,"O=C1NC2(CC2)C2(CC2)c2[nH]c3c(c21)CCc1cnc(-c2ccc(OCCN4CCOCC4)cc2)cc1-3 [Example 230, 2-(1′-Amino-bicyclopropyl-1-yl)-8-[4-(2-morpholin-4-yl-ethoxy)-phenyl]-4,5-dihydro-1H-pyrrolo[2,3-f]isoquinoline-3-carboxylic acid lactam]",7.44
14,"O=C1NC2(CCC2)Cc2[nH]c3c(c21)CCc1cnc(-c2ccc(OCCN4CCOCC4)cc2)cc1-3 [Example 231, 2-(1-Amino-cyclobutylmethyl)-8-[4-(2-morpholin-4-yl-ethoxy)-phenyl]-4,5-dihydro-1H-pyrrolo[2,3-f]isoquinoline-3-carboxylic acid lactam]",7.14
15,"CC(C)Oc1ccc(-c2cc3c(cn2)CCc2c-3[nH]c3c2C(=O)NC2(CC2)C3)cn1 [Example 235, 2-(1-Amino-cyclopropylmethyl)-8-(6-isopropoxy-pyridin-3-yl)-4,5-dihydro-1H-pyrrolo[2,3-f]isoquinoline-3-carboxylic acid lactam]",7.19
16,"CC(=O)OCc1ccc(-c2cc3c(cn2)CCc2c-3[nH]c3c2C(=O)NC2(CC2)C3)cn1 [Example 244, 8-(6-Acetoxymethyl-pyridin-3-yl)-2-(1-amino-cyclopropylmethyl)-4,5-dihydro-1H-pyrrolo[2,3-f]isoquinoline-3-carboxylic acid lactam]",7.37
